Test results as given in patent US20160346226A1, “Therapeutic Applications Of Prenylated Stilbenoids Against Rotavirus Infections” (ARKANSAS STATE UNIVERSITY, priority 2015, published 2016).
Read-outs that look alike come from different tables or passages of the source.

Columns and labels:
[1] = tested on: RV SA114F; test: Plaque forming unit (PFU) assay of the same supernatants; assay type: cell-based, simian rotavirus SA114F; conditions: 20 μM, average of three experiments, HT29.f8 supernatants
[2] = tested on: RV SA114F; test: Focus forming unit (FFU) viral titer of supernatants of RV-infected HT29.f8 cells treated with stilbenoids; assay type: cell-based, simian rotavirus SA114F
[3] = tested on: rotavirus (Wa) infected HT29.f8 cells; test: TEM observations of cell ultrastructure of rotavirus (Wa) infected HT29.f8 cells; assay type: cell-based, human; conditions: 20 μM, 18 hpi
Text: Observations of Cell Ultrastructure with TEM of Rotavirus (RV) Infected HT29.f8 Cells w/without t-A3
Mitochondria (M), rotavirus particles (RV), and a nucleolus (N) can be seen. Final Magnification=8,300×.

[4] = tested on: cannabinoid receptor 1 (CB1R); conditions: cited from earlier work; for mode of action at CB1R: reference [19]; for modulation of the cannabinoid receptors: references [18, 19]
[5] = tested on: RV-infected MA104 cells; conditions: reference [29]; cited from earlier work
[6] = tested on: mammalian cells; conditions: all cell lines, reference [3]; cited from earlier work
[7] = tested on: human leukemia HL-60 cells; conditions: reference [2]; cited from earlier work

| SMILES | difference in PFU/ml versus RV only and RV with DMSO [1] | mode of action at CB1R [4] | modulation of the cannabinoid receptors [4] | change in virus titer (FFU) compared to RV-infected control [2] | further results |
| --- | --- | --- | --- | --- | --- |
| Oc1ccc(/C=C/c2cc(O)cc(O)c2)cc1 [t-Res, Trans-resveratrol, reference compound] | no statistical differences | – | – | – | change in virus titer (FFU) compared to RV-infected control ([2]; 20 μM, 24 hours post-infection, HT29.f8 cells): no change in the virus titer |
| CC(C)/C=C/c1c(O)cc(/C=C/c2ccc(O)cc2)cc1O [t-A3, trans-arachidin-3] | one hundred fold difference | competitive cannabinoid receptor 1 (CB1R) antagonist | modulate the cannabinoid receptors at micromolar levels | one hundred fold decrease in virus titer | RV particles observed that were noninfectious, immature enveloped particles [3]: about 50%; autophagic vesicles (AV) ([3]; RV(Wa)): absent; mitochondria ultrastructure ([3]; RV(Wa)): Many mitochondria present with normal ultrastructure; nucleoli ([3]; RV(Wa)): Nucleoli present; vesicles in the cytoplasm ([3]; RV(Wa)): not as many as in the RV(Wa) only |
| CCCCCCCCCCCCCCOc1ccc(C(=O)O)o1 [TOFA, 5-(tetradecyloxy)-2-furoic acid] | – | – | – | – | virus infectivity and viral RNA production [5]: dose-dependent reduction |
| CC(C)/C=C/c1c(O)cc(/C=C/c2ccc(O)c(O)c2)cc1O [t-A1, Trans-Arachidin-1] | one hundred fold difference | antagonize CB1R agonists by both competitive and non-competitive mechanisms | modulate the cannabinoid receptors at micromolar levels | one hundred fold decrease in virus titer | cytotoxicity [6]: highest but moderate cytotoxicity; programmed cell death [7]: inducing programmed cell death |
